For data set [1], the system named is primary triple co-culture monkey BBB model. The following applies: cited from earlier work.
The test system of data set [2] is receptors for advanced glycation end-product (RAGE). The note with it: cited from earlier work.
Data set [3] is described as follows: Sodium fluorescein permeability (Pe) of monkey BBB mono- and co-culture models. It counts as in vitro ADME. The following applies: cynomolgus monkey (Macaca fascicularis), 10 μg/mL Na-F, read-out: endothelial permeability coefficient for sodium fluorescein (Na-F Pe). As to the method:
(§1) To evaluate the barrier function in different BBB models, transendothelial electrical resistance (TEER) was measured by an EVOM resistance meter and Endohm chamber (World Precision Instruments, Sarasota, FL, USA). The resistance values of blank inserts (background resistance) were subtracted from values of inserts with cells. TEER data are shown as Ω × cm^2. The permeability of sodium fluorescein (Na-F, MW: 376 Da) was also determined, and used as an index of paracellular transport. Cell culture inserts were transferred to 24-well plates containing 0.9 mL assay buffer (Dulbecco’s PBS (D-PBS) containing 0.9 mM CaCl2, 0.5 mM MgCl2, 4.5 g/L glucose, and 10 mM HEPES; pH 7.4). The luminal culture medium was replaced with 0.2 mL of assay buffer containing 10 μg/mL Na-F. Fifteen or 45 min after Na-F addition, the inserts were transferred to new wells containing the assay buffer. […] Transendothelial permeability coefficient (Pe) was calculated as previously described.

The nature of the next data set: in vitro. The following applies: cynomolgus monkey (Macaca fascicularis). How it is done:
To prepare the in vitro co-culture models (EPA), pericytes (2 × 10^4 cells/cm^2) were cultured on the bottom sides of collagen-coated culture inserts (Transwell clear, polyester membrane, 0.4 μm pore size, Corning Costar, NY, USA), and astrocytes (0.5 × 10^5 cell/cm^2) were seeded on the collagen-coated well of a 24-well culture plate. Cells were let to adhere overnight, and endothelial cells (2 × 10^5 cells/cm^2) were seeded on the inside of the inserts (top side of the membranes) and placed in the wells of the 24-well culture plates. An endothelial cell monolayer model (E00) was constructed by a similar method as the co-culture model, except for the procedure of seeding of pericytes and astrocytes. BBB models were maintained in RBEC medium supplemented with 550 nM hydrocortisone.
The permeability of the same 10 drugs was measured in the apical-to-basolateral (A-B) and basolateral-to-apical (B-A) directions as described in our previous study. All test compounds were dissolved in DMSO to yield a 10 mM solution, which was further diluted to 10 μM in HBSS-Hepes buffer (Hank’s Buffered Salt Solution containing 25 mM Hepes). […] The concentration of test compounds in the samples was determined by a Merck–Hitachi LaChrom HPLC with UV–VIS or a fluorescence detector (Merck, Darmstadt, Germany). […] Apparent permeability coefficients (Papp) were calculated using the following equation: Papp = (dQ/dT)/(A × C0), where dQ/dT is the cumulative amount in the receiver compartment versus time, A is the surface of the filter, and C0 is the initial concentration of the tracer in the luminal compartments.

Data set [4] concerns rat BBB co-culture model (EPA). Set-up: method as in PMID 22906709. The following applies: cited from earlier work; for Rat BBB Papp A-B: apical to basal; for Rat BBB Papp B-A: basal to apical.
Details of data set [5]: method as in PMID 22906709. The note with it: cited from earlier work.
Another data set deals with SLC35F2. Set-up: method as in PMID 33144341. The note with it: monkey BBB kit; famotidine as inhibitor; cited from earlier work.
Data set [6] has as its system P-glycoprotein (P-gp, ABCB1). Nature of the data set: Bidirectional transport of rhodamine 123 across MBECs. The note with it: 5 μM R123, 1 h, 37 °C; MBEC.
Protocol: For bidirectional transport assay, the flux of 5 μM R123 in assay buffer was measured for 1 h at 37 °C in the luminal-to-abluminal and in the opposite abluminal-to-luminal directions. After measuring the R123 content in samples collected from both compartments, Pe values were calculated.
The subject of data set [7] is monkey co-culture BBB model (EPA). Nature of the data set: Effect of TGF-β1 on barrier integrity (TEER) in monkey co-culture BBB model (EPA). In kind it is cell-based, Macaca fascicularis. The following applies: TGF-β1 1 ng/mL, 3, 6, and 12-h time points. How it is done: as §1

A word on the Papp A→B: it is how fast a substance crosses the layer from the apical side. Broadly, the Papp B→A is the apparent permeability from the basolateral to the apical side of a cell layer. Broadly, the efflux ratio is the permeability from basolateral to apical divided by that in the opposite direction, in the common usage.

Read-outs that look alike come from different tables or passages of the source.

As to `Cc1ccnc2c1NC(=O)c1cccnc1N2C1CC1` [nevirapine], the “mean Papp across the monkey BBB model” value in [1] is 3.2e-05 cm/s.

oxytocin: the “reduction of blood-to-brain direction transport when RAGE was silenced by shRNA” value in data set [2] is reported as “approximately 70%”.

Take `O=C1OC2(c3ccc(O)cc3Oc3cc(O)ccc32)c2ccccc21` [Na-F, sodium fluorescein]: the Papp at 10 μg/mL was 0.74 ± 0.06 ×10⁻⁶ cm/s in [3] (pH 7.4, MBEC co-culture with rat pericytes (EP0)); 0.69 ± 0.07 ×10⁻⁶ cm/s in data set [3] (pH 7.4, MBEC co-culture with rat pericytes and astrocytes (EPA)); 2.44 ± 0.04 ×10⁻⁶ cm/s in [3] (pH 7.4, monolayer MBEC model (E00)).

Turning to `Cn1c(=O)c2c(ncn2C)n(C)c1=O` [Caffeine], in the data set “in vitro”, the Papp A→B at 10 μM came out at 60.5 ×10⁻⁶ cm/s and the Papp B→A at 10 μM is 65.2 ×10⁻⁶ cm/s. Further, in data set [4], the “Rat BBB Papp A-B” value was 64.95 ×10⁻⁶ cm/s and the “Rat BBB Papp B-A” value is 59.91 ×10⁻⁶ cm/s. In data set [5], the “Mouse In Vivo Papp” value was 11.11 ×10⁻⁶ cm/s. In data set [1], the “mean Papp across the monkey BBB model” value is reported as 71.7 ± 3.2 × 10^−6 cm/s.

On to `CN/C(=N/CCSCc1nc[nH]c1C)NC#N` [Cimetidine], for which, in “in vitro”, the Papp A→B at 10 μM amounted to 3 ×10⁻⁶ cm/s, the Papp B→A at 10 μM was determined as 2.88 ×10⁻⁶ cm/s and the efflux ratio at 10 μM was determined as 0.97. Moreover, in data set [4], the “Rat BBB Papp A-B” value is 3.86 ×10⁻⁶ cm/s, the “Rat BBB Papp B-A” value is 2.8 ×10⁻⁶ cm/s and the “Rat BBB Efflux Ratio” value was 0.75. In [5], the “Mouse In Vivo Papp” value is 0.2 ×10⁻⁶ cm/s.

`COCCn1c2c([n+](Cc3cnccn3)c1C)C(=O)c1ccccc1C2=O` [YM155, sepantronium bromide]: the “BBB permeability and intraendothelial accumulation (SLC35F2 substrate transport)” value with SLC35F2 was “famotidine-inhibitable BBB permeability and intraendothelial accumulation”.

Turning to `COC(=O)c1ccccc1-c1c2ccc(=N)cc-2oc2cc(N)ccc12` [R123, rhodamine 123], the “transport of R123 from brain side to blood side (B-A) versus opposite direction (A-B)” value in data set [6] is given as “almost four-fold higher”.

As for `COc1ccc2c(c1)c(CC(=O)O)c(C)n2C(=O)c1ccc(Cl)cc1` [Indomethacin], in “in vitro”, the Papp A→B at 10 μM stood at 32.7 ×10⁻⁶ cm/s, the Papp B→A at 10 μM came to 39.1 ×10⁻⁶ cm/s and the efflux ratio at 10 μM is 1.2. Further, in [4], the “Rat BBB Papp A-B” value is 33.63 ×10⁻⁶ cm/s, the “Rat BBB Papp B-A” value is 44.07 ×10⁻⁶ cm/s and the “Rat BBB Efflux Ratio” value is listed as 1.31. Further, the “Mouse In Vivo Papp” value in data set [5] was 0.13 ×10⁻⁶ cm/s.

As to `C[C@H]1O[C@@H](O[C@H]2[C@@H](O)C[C@H](O[C@H]3[C@@H](O)C[C@H](O[C@H]4CC[C@@]5(C)[C@H](CC[C@@H]6[C@@H]5C[C@@H](O)[C@]5(C)[C@@H](C7=CC(=O)OC7)CC[C@]65O)C4)O[C@@H]3C)O[C@@H]2C)C[C@H](O)[C@@H]1O` [Digoxin], the “Mouse In Vivo Papp” value in [5] is 0.1 ×10⁻⁶ cm/s.

For the compound `O=c1c(O)c(-c2cc(O)c(O)c(O)c2)oc2cc(O)cc(O)c12` [myricetin], the “Papp in the monkey BBB model” value in [1] is 2.5 ×10⁻⁶ cm/s.

As to `CC[C@]1(O)C[C@@H]2CN(CCc3c([nH]c4ccccc34)[C@@](C(=O)OC)(c3cc4c(cc3OC)N(C)[C@H]3[C@@](O)(C(=O)OC)[C@H](OC(C)=O)[C@]5(CC)C=CCN6CC[C@]43[C@@H]65)C2)C1` [Vinblastine], in “in vitro”, the Papp A→B at 10 μM came out at 1.47 ×10⁻⁶ cm/s, the Papp B→A at 10 μM came out at 2.14 ×10⁻⁶ cm/s and the efflux ratio at 10 μM is 1.46. In data set [4], the “Rat BBB Papp A-B” value is 2.42 ×10⁻⁶ cm/s, the “Rat BBB Papp B-A” value was 1.39 ×10⁻⁶ cm/s and the “Rat BBB Efflux Ratio” value was 0.69. The “Mouse In Vivo Papp” value in [5] is 1.43 ×10⁻⁶ cm/s.

Take `CN(C)C(=O)C(CCN1CCC(O)(c2ccc(Cl)cc2)CC1)(c1ccccc1)c1ccccc1` [Loperamide]: in [4], the “Rat BBB Papp A-B” value was 15.57 ×10⁻⁶ cm/s and the “Rat BBB Papp B-A” value is 21.76 ×10⁻⁶ cm/s. For the same compound, in data set [5], the “Mouse In Vivo Papp” value was 1.05 ×10⁻⁶ cm/s.

Consider `Cc1nnc(C(=O)NC(C)(C)c2nc(C(=O)NCc3ccc(F)cc3)c(O)c(=O)n2C)o1` [raltegravir], for which the “mean Papp across the monkey BBB model” value in data set [1] was 1.02e-05 cm/s.

`COc1cc2c(cc1Cc1cccc(Cl)c1F)c(=O)c(C(=O)O)cn2[C@H](CO)C(C)C` [elvitegravir]: in data set [1], the “mean Papp across the monkey BBB model” value is 1.86e-05 cm/s.

As for `C=C[C@H]1C[N@@]2CC[C@H]1C[C@@H]2[C@@H](O)c1ccnc2ccc(OC)cc12` [Quinidine], in [4], the “Rat BBB Papp A-B” value is 6.28 ×10⁻⁶ cm/s and the “Rat BBB Papp B-A” value is 12.11 ×10⁻⁶ cm/s. Also, in data set [5], the “Mouse In Vivo Papp” value is 1.69 ×10⁻⁶ cm/s.

Regarding “TGF-β1: cytokine transforming growth factor β1”, the “decrease in TEER values compared to medium treated group” value in data set [7] is given as ~ 30%.

Consider `O=C1Nc2ccc(Cl)cc2[C@@](C#CC2CC2)(C(F)(F)F)O1` [efavirenz], for which, in [1], the “mean Papp across the monkey BBB model” value was 1.44e-05 cm/s.

Source of the values: publication PMC8470770, “Characterization of a Primate Blood-Brain Barrier Co-Culture Model Prepared from Primary Brain Endothelial Cells, Pericytes and Astrocytes” (Pharmaceutics, 2021).
